Assay results taken from patent US20100267561A1, “HERBICIDAL PYRIDAZINONE DERIVATIVES” (priority 2007, published 2010).

Key:
Assay in all cases: Test E pre-/postemergence plant response
Assay type in all cases: in vivo
[1] = system: large crabgrass (Digitaria sanguinalis); conditions: scale 0 to 100
Excerpt: (§1) Seeds of plant species selected from bermudagrass (Cynodon dactylon), Surinam grass (Brachiaria decumbens), large crabgrass (Digitaria sanguinalis), green foxtail (Setaria viridis), goosegrass (Eleusine indica), johnsongrass (Sorghum halepense), kochia (Kochia scoparia), pitted morningglory (Ipomoea lacunosa), purple nutsedge (Cyperus rotundus), common ragweed (Ambrosia elation), black mustard (Brassica nigra), guineagrass (Panicum maximum), dallisgrass (Paspalum dilatatum), barnyardgrass (Echinochloa crus-galli), southern (S.) sandbur (Cenchrus echinatus), common sowthistle (Sonchus oleraceous), prickly sida (Sida spinosa), Italian ryegrass (Lolium multiflorum), common purslane (Portulaca oleracea), broadleaf signalgrass (Brachiaria platyphylla), common groundsel (Senecio vulgaris), common chickweed (Stellaria media), Virginia (V.) dayflower (Commelina virginica), tropical (T.) spiderwort (Commelina benghalensis), annual bluegrass (Poa annua), naked crabgrass (Digitaria nuda), itchgrass (Rottboellia cochinchinensis), quackgrass (Elytrigia repens), Canada horseweed (Conyza canadensis), field bindweed (Convolvulus arvensis), spanishneedles (Bidens bipinnata), common mallow (Malva sylvestris) and Russian thistle (Salsola kali) were planted and treated preemergence with test chemicals formulated in a non-phytotoxic solvent mixture which included a surfactant. At the same time, plants selected from these weed species were treated with postemergence applications of some of the test chemicals formulated in the same manner. Plants ranged in height from 2 to 18 cm (1- to 4-leaf stage) for postemergence treatments.
(§2) Treated plants and controls were maintained in a greenhouse for 14 to 21 days, after which time all species were compared to controls and visually evaluated. Plant response ratings, summarized in Table E, are based on a scale of 0 to 100 where 0 is no effect and 100 is complete control. A dash (-) response means no test result.

[2] = system: dallisgrass (Paspalum dilatatum); conditions: scale 0 to 100
Excerpt: as §1, §2

[3] = system: broadleaf signalgrass (Brachiaria platyphylla); conditions: scale 0 to 100
Excerpt: as §1, §2

[4] = system: southern (S.) sandbur (Cenchrus echinatus); conditions: scale 0 to 100
Excerpt: as §1, §2

[5] = system: Italian ryegrass (Lolium multiflorum); conditions: scale 0 to 100
Excerpt: as §1, §2

[6] = system: common chickweed (Stellaria media); conditions: Postemergence, scale 0 to 100
Excerpt: as §1, §2

[7] = system: common purslane (Portulaca oleracea); conditions: scale 0 to 100
Excerpt: as §1, §2

[8] = system: naked crabgrass (Digitaria nuda); conditions: scale 0 to 100
Excerpt: as §1, §2

[9] = system: black mustard (Brassica nigra); conditions: scale 0 to 100
Excerpt: as §1, §2

[10] = system: quackgrass (Elytrigia repens); conditions: scale 0 to 100
Excerpt: as §1, §2

CCc1cc(-c2ccc(Cl)cc2)nn1-c1c(OC(=O)C(C)(C)C)cnn(C)c1=O [Compound 40]
85: Plant response rating, Crabgrass, Large ([1]; Postemergence, 16 g ai/ha) | Plant response rating, Sandbur, S. ([4]; Postemergence, 16 g ai/ha)
75: Plant response rating, Crabgrass, Large ([1]; Postemergence, 8 g ai/ha) | Plant response rating, Dallisgrass ([2]; Postemergence, 16 g ai/ha) | Plant response rating, Signalgrass ([3]; Postemergence, 8 g ai/ha) | Plant response rating, Sandbur, S. ([4]; Postemergence, 8 g ai/ha) | Plant response rating, Crabgrass, Naked ([8]; Postemergence, 16 g ai/ha)
0: Plant response rating, Chickweed ([6]; 8 g ai/ha) | Plant response rating, Chickweed ([6]; 16 g ai/ha) | Plant response rating, Chickweed ([6]; 31 g ai/ha) | Plant response rating, Purslane ([7]; 16 g ai/ha, Preemergence) | Plant response rating, Purslane ([7]; 31 g ai/ha, Preemergence) | Plant response rating, Purslane ([7]; 62 g ai/ha, Preemergence) | Plant response rating, Purslane ([7]; Postemergence, 8 g ai/ha) | Plant response rating, Purslane ([7]; Postemergence, 16 g ai/ha) | Plant response rating, Purslane ([7]; Postemergence, 31 g ai/ha) | Plant response rating, Purslane ([7]; Postemergence, 62 g ai/ha) | Plant response rating, Mustard, Black ([9]; 8 g ai/ha, Preemergence) | Plant response rating, Mustard, Black ([9]; 16 g ai/ha, Preemergence) | Plant response rating, Mustard, Black ([9]; 31 g ai/ha, Preemergence) | Plant response rating, Mustard, Black ([9]; 62 g ai/ha, Preemergence) | Plant response rating, Mustard, Black ([9]; Postemergence, 8 g ai/ha) | Plant response rating, Mustard, Black ([9]; Postemergence, 16 g ai/ha) | Plant response rating, Mustard, Black ([9]; Postemergence, 31 g ai/ha) | Plant response rating, Mustard, Black ([9]; Postemergence, 62 g ai/ha)
100: Plant response rating, Crabgrass, Large ([1]; 31 g ai/ha, Preemergence) | Plant response rating, Crabgrass, Large ([1]; 62 g ai/ha, Preemergence) | Plant response rating, Dallisgrass ([2]; 31 g ai/ha, Preemergence) | Plant response rating, Dallisgrass ([2]; 62 g ai/ha, Preemergence) | Plant response rating, Signalgrass ([3]; 62 g ai/ha, Preemergence) | Plant response rating, Signalgrass ([3]; Postemergence, 62 g ai/ha) | Plant response rating, Sandbur, S. ([4]; 31 g ai/ha, Preemergence) | Plant response rating, Sandbur, S. ([4]; 62 g ai/ha, Preemergence) | Plant response rating, Sandbur, S. ([4]; Postemergence, 62 g ai/ha) | Plant response rating, Ryegrass, Italian ([5]; 31 g ai/ha, Preemergence) | Plant response rating, Ryegrass, Italian ([5]; 62 g ai/ha, Preemergence) | Plant response rating, Ryegrass, Italian ([5]; Postemergence, 31 g ai/ha) | Plant response rating, Ryegrass, Italian ([5]; Postemergence, 62 g ai/ha) | Plant response rating, Crabgrass, Naked ([8]; 31 g ai/ha, Preemergence) | Plant response rating, Crabgrass, Naked ([8]; 62 g ai/ha, Preemergence) | Plant response rating, Crabgrass, Naked ([8]; Postemergence, 62 g ai/ha)
95: Plant response rating, Crabgrass, Large ([1]; Postemergence, 62 g ai/ha) | Plant response rating, Dallisgrass ([2]; 16 g ai/ha, Preemergence) | Plant response rating, Dallisgrass ([2]; Postemergence, 62 g ai/ha) | Plant response rating, Signalgrass ([3]; 16 g ai/ha, Preemergence) | Plant response rating, Signalgrass ([3]; Postemergence, 31 g ai/ha) | Plant response rating, Sandbur, S. ([4]; Postemergence, 31 g ai/ha) | Plant response rating, Crabgrass, Naked ([8]; Postemergence, 31 g ai/ha) | Plant response rating, Quackgrass ([10]; Postemergence, 62 g ai/ha)
65: Plant response rating, Dallisgrass ([2]; Postemergence, 8 g ai/ha)
30: Plant response rating, Quackgrass ([10]; Postemergence, 8 g ai/ha)
98: Plant response rating, Signalgrass ([3]; 31 g ai/ha, Preemergence) | Plant response rating, Sandbur, S. ([4]; 16 g ai/ha, Preemergence) | Plant response rating, Ryegrass, Italian ([5]; 16 g ai/ha, Preemergence)
60: Plant response rating, Quackgrass ([10]; 16 g ai/ha, Preemergence)
50: Plant response rating, Crabgrass, Large ([1]; 8 g ai/ha, Preemergence) | Plant response rating, Crabgrass, Naked ([8]; Postemergence, 8 g ai/ha) | Plant response rating, Quackgrass ([10]; Postemergence, 16 g ai/ha)
70: Plant response rating, Crabgrass, Large ([1]; 16 g ai/ha, Preemergence) | Plant response rating, Quackgrass ([10]; Postemergence, 31 g ai/ha)
80: Plant response rating, Dallisgrass ([2]; 8 g ai/ha, Preemergence) | Plant response rating, Dallisgrass ([2]; Postemergence, 31 g ai/ha) | Plant response rating, Quackgrass ([10]; 31 g ai/ha, Preemergence)
90: Plant response rating, Crabgrass, Large ([1]; Postemergence, 31 g ai/ha) | Plant response rating, Signalgrass ([3]; Postemergence, 16 g ai/ha) | Plant response rating, Ryegrass, Italian ([5]; Postemergence, 8 g ai/ha) | Plant response rating, Ryegrass, Italian ([5]; Postemergence, 16 g ai/ha) | Plant response rating, Crabgrass, Naked ([8]; 8 g ai/ha, Preemergence) | Plant response rating, Crabgrass, Naked ([8]; 16 g ai/ha, Preemergence) | Plant response rating, Quackgrass ([10]; 62 g ai/ha, Preemergence)
